Data from patent US20080200337A1, “Mixed herbicide compositions for paddy field” (Bayer CropScience, priority 2007, published 2008).

What was measured:
Type in all cases: in vivo
[1] = tested on: transplanted rice; assay: Phytotoxicity, flooded paddy field, treatment at 3 leaf-stage (Test Example 2); conditions: treatment at 3 leaf-stage, after 4 weeks
Protocol: (§1) Carrier: 5 parts by weight of acetone
(§2) Surfactant: one part by weight of benzyloxy polyglycol ether.
(§3) Above described carrier and surfactant are mixed with one part by weight of the active compound ((a) ingredient and (b) ingredient) and the resulting preparation is then diluted with water to obtain given amount of the test drug (the formulation).
(§4) In a greenhouse, seeds or tubers of Echinochloa, Cyperus difformis L., Scirpus juncoides Roxburgh, Monochoria vaginalis Presl, annual broad-leaved weeds (Lindernia procumbens Philcox, Lindernia dubia L. Penn., Rotala indica Koehne, Elatine triandra Schk, Ammannia multiflora Roxb.), Cyperus serotinus Rottboel and Sagittaria pygmaea Miq. were inoculated in a 500 cm^2 pot filled with paddy field soil. After 2 leaf-stage of rice were transplanted, water was poured to a depth of about 3 cm. At 3.0 leaf-stage of Echinochloa, a prescribed, diluted solution of the formulation of each active compound and each herbicidal compound in the table was separately or simultaneously applied to the surface of water. After the treatment, the water depth of 3 cm was maintained, and herbicidal effect was examined after 4 weeks. In the assessment of the herbicidal effect and the phytotoxicity, 100% refers to complete death and 0% refers to no effect or no phytotoxicity.

[2] = tested on: Sagittaria pygmaea Miq.; assay: Weed control, flooded paddy field, treatment at 3 leaf-stage (Test Example 2); conditions: after 4 weeks
Protocol: as §1, §2, §3, §4

[3] = tested on: Monochoria vaginalis Presl; assay: as above; conditions: after 4 weeks
Protocol: as §1, §2, §3, §4

[4] = tested on: Cyperus serotinus Rottboel; assay: as above; conditions: after 4 weeks
Protocol: as §1, §2, §3, §4

[5] = tested on: Echinochloa; assay: as above; conditions: after 4 weeks
Protocol: as §1, §2, §3, §4

[6] = tested on: annual broad-leaved weeds; assay: as above; conditions: after 4 weeks
Protocol: as §1, §2, §3, §4

[7] = tested on: Scirpus juncoides Roxburgh; assay: as above; conditions: after 4 weeks
Protocol: as §1, §2, §3, §4

[8] = tested on: submerged direct sown paddy (Nipponbare); assay: Phytotoxicity, spray treatment at 1.5 to 3.0 leaf-stage (Test Example 3); conditions: spray at 1.5 to 3.0 leaf-stage, 4 weeks later
Protocol: as §1, §2, §3
(§5) In a greenhouse, seeds of rice (var.: Nipponbare and RD23) and weeds (Echinochloa oryzicola Vasing, Echinochloa cruss-galli, Leptochloa chinensis, Cyperus difformis L., Cyperus iria L., annual broad-leaved weeds (Monochoria vaginalis Presl, Lindernia procumbens Philcox, Lindernia dubia L. Penn., Rotala indica Koehne, Elatine triandra Schk, Ammannia multiflora Roxb. and the like)) were sown in a 500 cm^2 pot filled with paddy field soil and covered with soil. Water was added to the pot (a depth of 0 cm) to be a wet condition, and each test plant was grown in the greenhouse to 1.5 to 3.0 leaf-stage, after then a prescribed, diluted solution of the formulation of each active compound and each herbicidal compound in the table were separately or simultaneously sprayed over the pots with plants. At 3 days after the treatment, the water depth of 3 cm was maintained, and 4 weeks later, herbicidal effect was then examined. In the assessment of the herbicidal effect and the phytotoxicity, 100% refers to complete death and 0% refers to no effect or no phytotoxicity.

[9] = tested on: submerged direct sown paddy (RD-23); assay: as above; conditions: spray at 1.5 to 3.0 leaf-stage, 4 weeks later, RD-23
Protocol: as §1, §2, §3, §5

[10] = tested on: Echinochloa cruss-galli; assay: Weed control by spray treatment at 1.5 to 3.0 leaf-stage (Test Example 3); conditions: spray at 1.5 to 3.0 leaf-stage, 4 weeks later
Protocol: as §1, §2, §3, §5

[11] = tested on: Cyperus difformis L.; assay: as above; conditions: spray at 1.5 to 3.0 leaf-stage, 4 weeks later
Protocol: as §1, §2, §3, §5

[12] = tested on: Echinochloa oryzicola Vasing; assay: as above; conditions: spray at 1.5 to 3.0 leaf-stage, 4 weeks later
Protocol: as §1, §2, §3, §5

[13] = tested on: Monochoria vaginalis Presl; assay: as above; conditions: spray at 1.5 to 3.0 leaf-stage, 4 weeks later
Protocol: as §1, §2, §3, §5

[14] = tested on: Cyperus iria L.; assay: as above; conditions: spray at 1.5 to 3.0 leaf-stage, 4 weeks later
Protocol: as §1, §2, §3, §5

[15] = tested on: annual broad-leaved weeds; assay: as above; conditions: spray at 1.5 to 3.0 leaf-stage, 4 weeks later
Protocol: as §1, §2, §3, §5

[16] = tested on: Leptochloa chinensis; assay: as above; conditions: spray at 1.5 to 3.0 leaf-stage, 4 weeks later
Protocol: as §1, §2, §3, §5

[17] = tested on: Sagittaria pygmaea Miq.; assay: Weed control, flooded paddy field, treatment at 1 leaf-stage (Test Example 1); conditions: after 4 weeks
Protocol: as §1, §2, §3
as §4, with “Echinochloa,” for “Echinochloa, Cyperus difformis L.,”, “1.0” for “3.0”, “Echinochloa oryzicola Vasing,” for “Echinochloa,”

[18] = tested on: Monochoria vaginalis Presl; assay: as above; conditions: after 4 weeks
Protocol: as §1, §2, §3
as §4, with “Echinochloa,” for “Echinochloa, Cyperus difformis L.,”, “1.0” for “3.0”, “Echinochloa oryzicola Vasing,” for “Echinochloa,”

[19] = tested on: Cyperus serotinus Rottboel; assay: as above; conditions: after 4 weeks
Protocol: as §1, §2, §3
as §4, with “Echinochloa,” for “Echinochloa, Cyperus difformis L.,”, “1.0” for “3.0”, “Echinochloa oryzicola Vasing,” for “Echinochloa,”

[20] = tested on: Echinochloa; assay: as above; conditions: after 4 weeks
Protocol: as §1, §2, §3
as §4, with “Echinochloa,” for “Echinochloa, Cyperus difformis L.,”, “1.0” for “3.0”, “Echinochloa oryzicola Vasing,” for “Echinochloa,”

[21] = tested on: annual broad-leaved weeds; assay: as above; conditions: after 4 weeks
Protocol: as §1, §2, §3
as §4, with “Echinochloa,” for “Echinochloa, Cyperus difformis L.,”, “1.0” for “3.0”, “Echinochloa oryzicola Vasing,” for “Echinochloa,”

[22] = tested on: Scirpus juncoides Roxburgh; assay: as above; conditions: after 4 weeks
Protocol: as §1, §2, §3
as §4, with “Echinochloa,” for “Echinochloa, Cyperus difformis L.,”, “1.0” for “3.0”, “Echinochloa oryzicola Vasing,” for “Echinochloa,”

[23] = tested on: transplanted rice; assay: Phytotoxicity, flooded paddy field, treatment at 1 leaf-stage (Test Example 1); conditions: treatment at 1 leaf-stage, after 4 weeks
Protocol: as §1, §2, §3
as §4, with “Echinochloa,” for “Echinochloa, Cyperus difformis L.,”, “1.0” for “3.0”, “Echinochloa oryzicola Vasing,” for “Echinochloa,”

## COc1nc(OC)nc(C(=O)c2cccc(F)c2N(C)S(=O)(=O)C(F)F)n1 [(a-1)]
[1]; 30 g ai/ha
  Phytotoxicity (%) ORYSP: 0%
[1]; 50 g ai/ha
  Phytotoxicity (%) ORYSP: 0%
[2]; 30 g ai/ha
  Herbicidal effect (%) SAGPY: 70%
[2]; 50 g ai/ha
  Herbicidal effect (%) SAGPY: 73%
[3]; 30 g ai/ha
  Herbicidal effect (%) MOOVP: 20%
[3]; 50 g ai/ha
  Herbicidal effect (%) MOOVP: 45%
[4]; 30 g ai/ha
  Herbicidal effect (%) CYPSEE: 90%
[4]; 50 g ai/ha
  Herbicidal effect (%) CYPSEE: 90%
[5]; 30 g ai/ha
  Herbicidal effect (%) ECHSS: 90%
[5]; 50 g ai/ha
  Herbicidal effect (%) ECHSS: 90%
[6]; 30 g ai/ha
  Herbicidal effect (%) BBBBB: 21%
[6]; 50 g ai/ha
  Herbicidal effect (%) BBBBB: 30%
[7]; 30 g ai/ha
  Herbicidal effect (%) SCPSS: 80%
[7]; 50 g ai/ha
  Herbicidal effect (%) SCPSS: 83%
[8]; 30 g ai/ha
  Phytotoxicity (%) ORYSW*^1: 5%
[8]; 50 g ai/ha
  Phytotoxicity (%) ORYSW*^1: 10%
[9]; 30 g ai/ha
  Phytotoxicity (%) ORYSW*^2: 5%
[9]; 50 g ai/ha
  Phytotoxicity (%) ORYSW*^2: 10%
[10]; 30 g ai/ha
  Herbicidal effect (%) ECHCG: 100%
[10]; 50 g ai/ha
  Herbicidal effect (%) ECHCG: 100%
[11]; 30 g ai/ha
  Herbicidal effect (%) CYPDI: 100%
[11]; 50 g ai/ha
  Herbicidal effect (%) CYPDI: 100%
[12]; 30 g ai/ha
  Herbicidal effect (%) ECHOR: 100%
[12]; 50 g ai/ha
  Herbicidal effect (%) ECHOR: 100%
[13]; 30 g ai/ha
  Herbicidal effect (%) MOOVP: 85%
[13]; 50 g ai/ha
  Herbicidal effect (%) MOOVP: 85%
[14]; 30 g ai/ha
  Herbicidal effect (%) CYPIR: 100%
[14]; 50 g ai/ha
  Herbicidal effect (%) CYPIR: 100%
[15]; 30 g ai/ha
  Herbicidal effect (%) BBBBB: 70%
[15]; 50 g ai/ha
  Herbicidal effect (%) BBBBB: 70%
[16]; 30 g ai/ha
  Herbicidal effect (%) LEFCH: 75%
[16]; 50 g ai/ha
  Herbicidal effect (%) LEFCH: 90%
[17]; 30 g ai/ha
  Herbicidal effect (%) SAGPY: 70%
[17]; 50 g ai/ha
  Herbicidal effect (%) SAGPY: 90%
[18]; 30 g ai/ha
  Herbicidal effect (%) MOOVP: 25%
[18]; 50 g ai/ha
  Herbicidal effect (%) MOOVP: 47%
[19]; 30 g ai/ha
  Herbicidal effect (%) CYPSEE: 90%
[19]; 50 g ai/ha
  Herbicidal effect (%) CYPSEE: 93%
[20]; 30 g ai/ha
  Herbicidal effect (%) ECHSS: 93%
[20]; 50 g ai/ha
  Herbicidal effect (%) ECHSS: 95%
[21]; 30 g ai/ha
  Herbicidal effect (%) BBBBB: 25%
[21]; 50 g ai/ha
  Herbicidal effect (%) BBBBB: 45%
[22]; 30 g ai/ha
  Herbicidal effect (%) SCPSS: 85%
[22]; 50 g ai/ha
  Herbicidal effect (%) SCPSS: 87%
[23]; 30 g ai/ha
  Phytotoxicity (%) ORYSP: 0%
[23]; 50 g ai/ha
  Phytotoxicity (%) ORYSP: 0%
